This test deals with Leishmania donovani. Description: Antileishmanial activity against Leishmania donovani promastigotes by alamar blue dye based fluorescence assay. It counts as functional, organism-based.

Data on 4 molecules can be found in ChEMBL document CHEMBL4196243, “Antileishmanial Carbasugars from Geosmithia langdonii” (J Nat Prod, 2018).

By pIC50 is commonly meant the negative decadic logarithm of the IC50, by convention in mol/L. Lower therefore signals a high IC50. As a reminder, the IC90 is the point of the concentration-response curve where the effect stands at 90%. High values mean weaker potency, low ones greater potency.

Structures are written as SMILES. pIC50: −log10 of the molar value. Where only a bound is given, the exact number is not on record here.

In turn, `C[C@@H]1C[C@H](OC(=O)c2cc(O)ccc2O)[C@H](O)[C@H](O)[C@@H]1O` showed a pIC50 of 4.00 and an IC90 above 134 µM.

`C[C@@H]1C[C@H](O)[C@H](O)[C@H](O)[C@@H]1OCc1cc(O)ccc1O` gave a pIC50 of 4.24 and an IC90 of 119 µM. Regarding `C[C@@H]1[C@H](O)[C@@H](C)/C=C/C=C/C=C/C=C/C=C/C=C/C=C/[C@H](O[C@@H]2O[C@H](C)[C@@H](O)[C@H](N)[C@@H]2O)C[C@@H]2O[C@](O)(C[C@@H](O)C[C@@H](O)[C@H](O)CC[C@@H](O)C[C@@H](O)CC(=O)O[C@H]1C)C[C@H](O)[C@H]2C(=O)O` [AMPHOTERICIN B], the IC90 amounted to 0.4 µM. `N=C(N)c1ccc(OCCCCCOc2ccc(C(=N)N)cc2)cc1` [PENTAMIDINE] had a pIC50 of 5.05 and an IC90 of 17 µM.
